Assays:
human GSK3 beta = biological target: T1, human GSK3 beta (Homo sapiens, UniProt P49841); assay: GSK3 beta enzyme assay (ADP-Glo); type: biochemical; conditions: ATP 25 μM, read-out: GSK3b IC50
T1 construct: Recombinant full-length human GSK3 beta (expressed in Sf9 insect cells with an N-terminal His tag); His (N); purchased SignalChem G09-10H; host or cells: Sf9 insect cells
In short: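 Full-length His-tagged human GSK3β from Sf9 cells (4 nM) preincubated 30 min at 25 °C with inhibitor in Tris pH 7.5/MgCl2/BSA/DTT, then reacted 60 min at 25 °C with 13 μM substrate peptide and 25 μM ATP. ADP measured by ADP-Glo luminescence; IC50 from four-parameter logistic fit of % inhibition.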

human HIPK1 = biological target: T2, human HIPK1 (Homo sapiens, UniProt Q86Z02); assay: HIPK1 enzyme assay (ADP-Glo); type: biochemical; conditions: ADP-Glo, ATP 5 μM; read-out: HIPK1 IC50
T2 construct: Recombinant human HIPK1 (156-555); GST (N); purchased SignalChem H03-11G; host or cells: Sf9 insect cells
T2 sequence (Q86Z02 156-555): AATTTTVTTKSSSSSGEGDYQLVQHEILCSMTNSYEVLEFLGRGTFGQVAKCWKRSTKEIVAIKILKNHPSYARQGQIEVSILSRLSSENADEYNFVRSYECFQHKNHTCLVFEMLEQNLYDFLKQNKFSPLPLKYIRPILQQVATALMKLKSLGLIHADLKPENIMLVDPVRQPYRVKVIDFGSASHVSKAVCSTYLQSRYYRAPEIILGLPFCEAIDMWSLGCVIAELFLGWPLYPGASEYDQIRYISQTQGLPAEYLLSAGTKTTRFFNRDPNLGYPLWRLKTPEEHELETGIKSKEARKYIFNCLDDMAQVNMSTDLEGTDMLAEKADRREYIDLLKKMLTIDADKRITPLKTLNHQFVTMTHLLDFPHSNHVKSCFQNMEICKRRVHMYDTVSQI
In short: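 Recombinant GST-tagged HIPK1 (156-555, Sf9), 4 nM, preincubated 30 min at 25° C with compound in Tris pH 7.5/MgCl2/BSA/DTT, then reacted 90 min with 0.05 mg/ml MBP and 5 μM ATP. ADP formed read by ADP-Glo luminescence; IC50 from four-parameter logistic fit of % inhibition versus Max/Min controls.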

T1 sequence (P49841 whole entry): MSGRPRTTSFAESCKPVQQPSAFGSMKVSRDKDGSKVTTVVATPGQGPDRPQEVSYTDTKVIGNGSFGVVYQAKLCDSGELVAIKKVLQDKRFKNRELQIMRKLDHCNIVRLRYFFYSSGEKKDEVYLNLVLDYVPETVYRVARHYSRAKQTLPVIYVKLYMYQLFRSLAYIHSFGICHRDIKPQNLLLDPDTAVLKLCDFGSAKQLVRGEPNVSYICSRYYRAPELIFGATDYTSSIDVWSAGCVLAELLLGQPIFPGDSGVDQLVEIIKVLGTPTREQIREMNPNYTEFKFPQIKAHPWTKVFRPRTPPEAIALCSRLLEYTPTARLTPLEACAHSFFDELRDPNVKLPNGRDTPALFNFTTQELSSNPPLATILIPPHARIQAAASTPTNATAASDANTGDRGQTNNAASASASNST

SMILES | IC50 (human GSK3 beta) [µM] | IC50 (human HIPK1) [µM]
Cn1ncc2cc(/C=C3\N=C(Nc4ccccc4)NC3=O)ccc21 [Example 77, (Z)-5-((1-methyl-1H-indazol-5-yl)methylene)-2-(phenylamino)-3,5-dihydro-4H-imidazol-4-one] | > 10 | > 10
Cn1ncc2ccc(/C=C3\N=C(Nc4ccccc4)NC3=O)cc21 [Example 79, 5-((1-methyl-1H-indazol-6-yl)methylene)-2-(phenylamino)-3,5-dihydro-4H-imidazol-4-one] | > 10 | > 10
Cn1ncc2ccc(/C=C3\N=C(Nc4ccc5ncsc5c4)NC3=O)cc21 [Example 80, (Z)-2-(benzo[d]thiazol-6-ylamino)-5-((1-methyl-1H-indazol-6-yl)methylene)-3,5-dihydro-4H-imidazol-4-one] | > 10 | > 10
CN(C1=N/C(=C\c2ccc3c(c2)OCCO3)C(=O)N1)c1ccc2ncsc2c1 [Example 84, (Z)-2-(benzo[d]thiazol-6-yl(methyl)amino)-5-((2,3-dihydrobenzo[b][1,4]dioxin-6-yl)methylene)-3,5-dihydro-4H-imidazol-4-one] | 1 to 10 | > 10
O=C1NC(Nc2ccc3ncsc3c2)=NC1Cc1ccc2ncsc2c1 (stereo not drawn) [Example 102, 2-(benzo[d]thiazol-6-ylamino)-5-(benzo[d]thiazol-6-ylmethyl)-3,5-dihydro-4H-imidazol-4-one] | > 10 | 0.1 to 1
O=C1NC(N(CC2CC2)c2ccc3ncsc3c2)=N/C1=C\c1ccc2ncsc2c1 [Example 105, (Z)-2-(benzo[d]thiazol-6-yl(cyclopropylmethyl)amino)-5-(benzo[d]thiazol-6-ylmethylene)-3,5-dihydro-4H-imidazol-4-one] | > 10 | > 10

The next lines start with the values.

IC50 (human GSK3 beta) [µM] | IC50 (human HIPK1) [µM] | SMILES
> 10 | > 10 | Cn1ncc2cc(/C=C3\N=C(Nc4ccc5ncsc5c4)NC3=O)ccc21 [Example 78, (Z)-2-(benzo[d]thiazol-6-ylamino)-5-((1-methyl-1H-indazol-5-yl)methylene)-3,5-dihydro-4H-imidazol-4-one]
0.1 to 1 | 0.1 to 1 | O=C1NC(Nc2ccc3c(c2)OCCO3)=N/C1=C\c1ccc2ncsc2c1 [Example 81, (Z)-5-(benzo[d]thiazol-6-ylmethylene)-2-((2,3-dihydrobenzo[b][1,4]dioxin-6-yl)amino)-3,5-dihydro-4H-imidazol-4-one]
0.1 to 1 | > 10 | O=C1NC(Nc2ccc3nccnc3c2)=N/C1=C\c1ccc2ncsc2c1 [Example 82, (Z)-5-(benzo[d]thiazol-6-ylmethylene)-2-(quinoxalin-6-ylamino)-3,5-dihydro-4H-imidazol-4-one]
1 to 10 | > 10 | CN(C1=N/C(=C\c2ccc3ncsc3c2)C(=O)N1)c1ccc2ncsc2c1 [Example 83, (Z)-2-(benzo[d]thiazol-6-yl(methyl)amino)-5-(benzo[d]thiazol-6-ylmethylene)-3,5-dihydro-4H-imidazol-4-one]
1 to 10 | 0.1 to 1 | NC1=N/C(=C\c2ccc3ncsc3c2)C(=O)N1 [Example 103, (Z)-2-amino-5-(benzo[d]thiazol-6-ylmethylene)-3,5-dihydro-4H-imidazol-4-one]
> 10 | > 10 | O=C1NC(Nc2ccc3nc(Nc4ccccc4)sc3c2)=N/C1=C\c1ccc2ncsc2c1 [Example 104, (Z)-5-(benzo[d]thiazol-6-ylmethylene)-2-((2-(phenylamino)benzo[d]thiazol-6-yl)amino)-3,5-dihydro-4H-imidazol-4-one]
